This passage reports IC50 results from publication PMC2195872 (The Journal of Experimental Medicine, 2000).

The test concerns the target LTB4 receptor (Homo sapiens, UniProt Q15722). The test is described as follows: [3H]LTB4 competition radioligand binding on HEK293 cells. In kind it is cell-based.

LTB4 receptor, sequence (Q15722 whole entry): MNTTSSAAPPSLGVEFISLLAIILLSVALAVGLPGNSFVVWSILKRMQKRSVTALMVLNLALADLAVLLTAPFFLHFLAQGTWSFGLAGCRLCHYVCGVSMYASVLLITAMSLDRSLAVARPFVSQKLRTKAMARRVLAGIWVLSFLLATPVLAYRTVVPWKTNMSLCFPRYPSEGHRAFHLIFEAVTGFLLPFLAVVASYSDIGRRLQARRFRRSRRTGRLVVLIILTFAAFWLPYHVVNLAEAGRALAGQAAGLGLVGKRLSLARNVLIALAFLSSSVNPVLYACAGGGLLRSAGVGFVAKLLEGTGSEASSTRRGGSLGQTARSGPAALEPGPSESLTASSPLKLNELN

In the case of `CC/C=C\C/C=C\C[C@@H](O)/C=C/C=C/C=C\[C@@H](O)CCCC(=O)O` [LTB5], the IC50 was around 500 nM.
